Data set [1] is described as follows: in vitro. Particulars: human, plasma.
Data set [2] can be described thus: in vitro. Particulars: SD, HW or BN, rat, plasma.

Each structure is given as a SMILES string. Counter-ions that a name gives are not always drawn.

As usually defined, the fraction unbound is free concentration divided by total concentration.

`O=C(NCc1ccccn1)c1cc(-c2ccccc2)nc2ccccc12`: the fraction unbound at 5 h in data set [1] (PPB) is 0.013; in data set [2], 0.02.

For `CC(C)(Oc1ccc(Cl)cc1)C(=O)N1CCN(c2ccccn2)CC1`, the fraction unbound at 5 h is 0.0077 in data set [1] (PPB) and 0.0092 in data set [2].

`Cc1ccc(NC(=O)Nc2nnc(-c3ccncc3)s2)cc1`: the fraction unbound at 5 h is 0.0061 in data set [1] (PPB) and 0.0064 in data set [2].

Turning to `CN(c1ccccc1)S(=O)(=O)c1ccc(NC(=O)C(C)(O)C(F)(F)F)cc1` (stereo not drawn), the fraction unbound at 5 h in data set [1] (PPB) is 0.0229; in data set [2] it was 0.024.

On to `Cc1cc(I)cc2c1NC(C(=O)O)C1CC=CC21` (stereo not drawn), for which the fraction unbound at 5 h in data set [1] (PPB) is 0.002; in data set [2], 0.007.

On to `COc1ccc2c(c1)C(=O)C(=O)N2CC1COc2ccccc2O1` (stereo not drawn), for which the values for the fraction unbound at 5 h in data set [1] (PPB) and in data set [2] were 0.0066 and 0.0059, respectively.

With `Cc1cc(C)c(C)c(Cn2ccc3c(/C=N/NC(=O)c4ccc(O)c(C#N)c4)cccc32)c1C`, the fraction unbound at 5 h is 0.04 in data set [1] (PPB) and 0.0032 in data set [2].

Regarding `Cc1nc2ccc(NS(=O)(=O)c3ccc4c(c3)OCCO4)cc2s1`, the fraction unbound at 5 h in data set [1] (PPB) was 0.0033; in data set [2], 0.0067.

`Cc1ccc(S(=O)(=O)Nc2ccc3nc(C)oc3c2)cc1`: the unbound share (fraction unbound) at 5 h is 0.0209 in data set [1] (PPB) and 0.051 in data set [2].

On to `Cc1onc(-c2c(Cl)cccc2Cl)c1NC(=O)OCc1c(F)cccc1Cl`, for which the fraction unbound at 5 h in data set [1] (PPB) is 0.002; in data set [2] it was 0.003.

For the compound `Cc1onc(-c2c(Cl)cccc2Cl)c1CC(=O)NCc1ccc(OCC(F)(F)F)nc1`, the fraction unbound at 5 h was 0.009 in data set [1] (PPB) and 0.0457 in data set [2].

With `CC(C)(C)OC(=O)NC[C@H]1CC[C@H](CNC(=O)c2cc(-c3ccccc3)nc3ccccc23)CC1`, the fraction unbound at 5 h in data set [1] (PPB) is 0.0008; in data set [2], 0.005.

For `Cc1ccc(S(=O)(=O)Nc2c(C(=O)NC3CCOCC3)c(C)nn2-c2ccccc2)cc1`, the fraction unbound at 5 h in data set [1] (PPB) was 0.0262; in data set [2] it was 0.089.

On to `COc1cccc2c1c(NS(=O)(=O)c1ccc(Cl)s1)nn2Cc1cccc(CNC(C)=O)c1`, for which the unbound share (fraction unbound) at 5 h in data set [1] (PPB) is 0.0066; in data set [2], 0.0028.

Turning to `Cn1c(-c2cc(=O)c(O)c[nH]2)nn(S(=O)(=O)NC(=O)N2C[C@H](NC(=O)/C(=N\OC(C)(C)C(=O)O)c3csc(N)n3)C2=O)c1=O`, the fraction unbound at 5 h in data set [1] (PPB) was 0.0447; in data set [2], 0.0149.

As for `Cc1nn(-c2ccccc2)nc1C(=O)N[C@@H]1COc2cccc(N3CCN(C)CC3)c2C1`, the fraction unbound at 5 h in data set [1] (PPB) was 0.0418; in data set [2], 0.0383.

`O=C(N[C@@H]1COc2cccc(-c3ccc(CO)nc3)c2C1)c1ccc(OCCOCC(F)(F)F)nc1`: the fraction unbound at 5 h in data set [1] (PPB) is 0.0409; in data set [2], 0.089.

Turning to `CC(C)C(NC(=O)c1ccccc1)C(=O)c1ccc([N+](=O)[O-])cc1` (stereo not drawn), the fraction unbound at 5 h was 0.0418 in data set [1] (PPB) and 0.069 in data set [2].

Take `CC(C)C(NC(=O)c1cc(Cl)ccc1C(F)(F)F)C(=O)c1ccc(C#N)cc1` (stereo not drawn): the fraction unbound at 5 h was 0.0262 in data set [1] (PPB) and 0.0428 in data set [2].

Take `CC(C)(C)C(NC(=O)c1ccccc1)C(=O)c1ccc(Cl)cc1` (stereo not drawn): the fraction unbound at 5 h in data set [1] (PPB) is 0.006; in data set [2], 0.0081.

For the compound `COc1ncc(-c2ccccc2C(F)(F)CNC(=O)c2ccc(COCC(F)(F)F)nc2)cn1`, the fraction unbound at 5 h in data set [1] (PPB) was 0.0099; in data set [2] it was 0.129.

Consider `COc1ncc(-c2c(C)ccc(F)c2CCNC(=O)c2ccc(OCC(F)(F)F)nc2)cn1`, for which the results for the fraction unbound at 5 h in data set [1] (PPB) and in data set [2] were 0.002 and 0.0437, respectively.

For `COc1cnc(-c2cccc(F)c2C(F)(F)CNC(=O)c2ccc(COCC(F)(F)F)nc2)cn1`, the fraction unbound at 5 h in data set [1] (PPB) was 0.0328; in data set [2] it was 0.0457.

As for `O=c1cc(N2CCOCC2)nc(NCc2cccc3ccccc23)[nH]1`, the fraction unbound at 5 h in data set [1] (PPB) is 0.0321; in data set [2], 0.0251.

Consider `O=c1cc(N2CCOCC2)nc(NCc2cccc(Cl)c2Cl)[nH]1`, for which the fraction unbound at 5 h in data set [1] (PPB) was 0.0209; in data set [2], 0.0179.

`O=c1cc(N2CCOCC2)nc(NCc2c(Cl)cccc2Cl)[nH]1`: the fraction unbound at 5 h in data set [1] (PPB) was 0.04; in data set [2], 0.0418.

Regarding `O=C(NCc1cccc(OC(F)(F)F)c1)C1c2ccccc2C(=O)N1CCc1ncc(F)cn1` (stereo not drawn), the fraction unbound at 5 h in data set [1] (PPB) was 0.0447; in data set [2], 0.179.

`O=C(NCc1ccc(F)c(OC(F)(F)F)c1)C1c2ccccc2C(=O)N1CCc1ncc(F)cn1` (stereo not drawn): the results for the fraction unbound at 5 h in data set [1] (PPB) and in data set [2] were 0.0321 and 0.0988, respectively.

`O=C(NCc1ccc(F)c(C(F)(F)F)c1)C1c2ccccc2C(=O)N1CCc1ncc(F)cn1` (stereo not drawn): the fraction unbound at 5 h is 0.0477 in data set [1] (PPB) and 0.129 in data set [2].

Turning to `O=C(NCc1ccc(OC(F)(F)F)cc1)C1c2cccc(O)c2C(=O)N1CCc1ncc(F)cn1` (stereo not drawn), the fraction unbound at 5 h in data set [1] (PPB) was 0.0179; in data set [2] it was 0.0418.

Turning to `CC(Cc1ccccn1)N1C(=O)c2ccccc2C1C(=O)NCc1ccc(OC(F)(F)F)cc1` (stereo not drawn), the fraction unbound at 5 h in data set [1] (PPB) is 0.0111; in data set [2], 0.0366.

Take `O=C(NCc1ccc(OC(F)(F)F)cc1)C1c2ccccc2C(=O)N1C[C@@H]1CCCO1` (stereo partly drawn): the fraction unbound at 5 h was 0.0358 in data set [1] (PPB) and 0.0606 in data set [2].

In the case of `O=C(NCc1ccc(OC(F)(F)F)cc1)C1c2ccccc2C(=O)N1CCc1ccccn1` (stereo not drawn), the results for the fraction unbound at 5 h in data set [1] (PPB) and in data set [2] were 0.0358 and 0.0447, respectively.

As to `CC1CN(c2cc(=O)[nH]c(NCc3cccc4ccccc34)n2)CCO1` (stereo not drawn), the figures for the fraction unbound at 5 h in data set [1] (PPB) and in data set [2] were 0.013 and 0.024, respectively.

As for `Cc1ncc(C(N)=S)nc1-c1ccc([C@H]2CC[C@H](CC(=O)O)CC2)cc1`, the fraction unbound at 5 h in data set [1] (PPB) is 0.028; in data set [2], 0.0099.

Turning to `Cc1nc(C(C)C)c(C(N)=O)nc1-c1ccc([C@H]2CC[C@H](CC(=O)O)CC2)cc1`, the figures for the unbound share (fraction unbound) at 5 h in data set [1] (PPB) and in data set [2] were 0.0262 and 0.0119, respectively.

Take `Cc1nc(C(C)C)c(-c2ccc([C@H]3CC[C@H](CC(=O)O)CC3)cc2)nc1C(N)=O`: the results for the fraction unbound at 5 h in data set [1] (PPB) and in data set [2] were 0.0219 and 0.0119, respectively.

For `NC(=O)c1cncc(-c2ccc([C@H]3CC[C@H](CCO)CC3)cc2)n1`, the fraction unbound at 5 h in data set [1] (PPB) is 0.028; in data set [2], 0.013.

In the case of `NC(=O)c1cncc(-c2ccc([C@H]3CC[C@H](CC(=O)O)CC3)cc2)n1`, the figures for the fraction unbound at 5 h in data set [1] (PPB) and in data set [2] were 0.035 and 0.0063, respectively.

For `CCC[C@H](c1ccc(C(=O)O)c(Oc2cccc(Cl)c2)c1)N1CCC[C@H](n2cc(C)c(=O)[nH]c2=O)C1`, the fraction unbound at 5 h in data set [1] (PPB) is 0.0119; in data set [2], 0.016.

Regarding `CCC[C@@H](c1ccc(C(=O)O)c(Oc2cccc(Cl)c2)c1)N1CCC[C@H](n2cc(C)c(=O)[nH]c2=O)C1`, the fraction unbound at 5 h in data set [1] (PPB) is 0.007; in data set [2] it was 0.0179.

With `O=C(CCCN1CC[Si](O)(c2cccc(C(F)(F)F)c2)CC1)c1ccc(F)cc1`, the figures for the fraction unbound at 5 h in data set [1] (PPB) and in data set [2] were 0.0409 and 0.0447, respectively.

Take `Cc1nnc(-c2ccc(N3CCC(Oc4cc(F)ccc4Cl)CC3)nn2)o1`: the fraction unbound at 5 h in data set [1] (PPB) was 0.0179; in data set [2], 0.0082.

Take `N#Cc1cc(S(=O)(=O)Nc2ncns2)ccc1Oc1ccc(C(F)(F)F)cc1-c1ccnnc1`: the fraction unbound at 5 h in data set [1] (PPB) is 0.0059; in data set [2], 0.0209.

`N#Cc1cc(S(=O)(=O)Nc2ncc(Cl)s2)ccc1Oc1ccc(Cl)cc1-c1ccnn1C1CNC1`: the fraction unbound at 5 h in data set [1] (PPB) is 0.0081; in data set [2], 0.0142.

Take `CC(C)(C)OC(=O)N[C@H](Cc1ccccc1C(F)(F)F)C(=O)NCc1nc2cccnc2n1Cc1ccccc1`: the fraction unbound at 5 h in data set [1] (PPB) is 0.0111; in data set [2] it was 0.002.

In the case of `CC(C)Oc1cc(Nc2nc(N[C@@H](C)c3ccc(F)cc3)nc(NC(CO)CO)c2Cl)n[nH]1`, the fraction unbound at 5 h in data set [1] (PPB) was 0.0358; in data set [2], 0.0428.

Regarding `CC(C)c1noc(C2CCN(c3ncnc(Nc4ccc(S(C)(=O)=O)cc4F)c3[N+](=O)[O-])CC2)n1`, the fraction unbound at 5 h is 0.0099 in data set [1] (PPB) and 0.016 in data set [2].

For the compound `CC(NC(=O)c1cc2ccccc2[nH]1)c1ccccc1` (stereo not drawn), the fraction unbound at 5 h was 0.0219 in data set [1] (PPB) and 0.0366 in data set [2].

For `c1ccc2c(c1)CCC[C@H]2Nc1nc2ccccc2[nH]1`, the results for the fraction unbound at 5 h in data set [1] (PPB) and in data set [2] were 0.007 and 0.0437, respectively.

Consider `Cc1onc(-c2ccccc2)c1C(=O)N(C)c1ccc(Cl)cc1`, for which the fraction unbound at 5 h was 0.0418 in data set [1] (PPB) and 0.0752 in data set [2].

`Cc1cc(Oc2ncc(C(F)(F)F)cc2Cl)ccc1CC1SC(=O)NC1=O` (stereo not drawn): the fraction unbound at 5 h in data set [1] (PPB) is 0.0006; in data set [2], 0.0021.

For the compound `O=S(=O)(N[C@H](CO)C(C(F)(F)F)C(F)(F)F)c1ccc(Cl)s1` [BEGACESTAT], the fraction unbound at 5 h in data set [1] (PPB) is 0.0909; in data set [2], 0.11.

Regarding `CCCCc1nc(Cl)c(C(=O)O)n1Cc1ccc(-c2ccccc2-c2nn[nH]n2)cc1` [CARBOXYLIC ACID METABOLITE], the results for the fraction unbound at 5 h in data set [1] (PPB) and in data set [2] were 0.0049 and 0.0022, respectively.

`CCOC(=O)Nc1ccc(NCc2ccc(F)cc2)cc1N` [EZOGABINE]: the figures for the fraction unbound at 5 h in data set [1] and in data set [2] were 0.139 and 0.201, respectively.

As to `COCCCC/C(=N\OCCN)c1ccc(C(F)(F)F)cc1` [FLUVOXAMINE MALEATE], the fraction unbound at 5 h in data set [1] (PPB) is 0.266; in data set [2] it was 0.224.

`C[N+](C)(Cc1ccc(NC(=O)c2ccc(Cl)c(Cl)c2)cc1)C1CCOCC1` [JNJ-17166864 CATION]: the fraction unbound at 5 h in data set [1] (PPB) is 0.179; in data set [2] it was 0.387.

Turning to `CNC1(c2ccccc2Cl)CCCCC1=O` (stereo not drawn) [KETAMINE], the fraction unbound at 5 h in data set [1] was 0.58; in data set [2] it was 0.552.

On to `CC(C)NC[C@H](O)COc1cccc2ccccc12` [LEVOPROPRANOLOL], for which the fraction unbound at 5 h in data set [1] was 0.139; in data set [2], 0.204.

These data come from ChEMBL document CHEMBL3301361, “Experimental in vitro DMPK and physicochemical data on a set of publicly disclosed compounds”.
